Results as given in PubChem BioAssay (NCI).
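Where inhibition never reached the appropriate level, the endpoint shown equals the highest concentration tested. Otherwise, values were interpolated linearly from a five-concentration, 48-hour dose response in 96-well plates. TGI: total growth inhibition.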

Key:
Test in all cases: NCI anticancer screen, dose series, 48 h
[1] = tested on: T-47D breast
[2] = tested on: SF-268 CNS
[3] = tested on: OVCAR-8 ovarian
[4] = tested on: TK-10 renal
[5] = tested on: PC-3 prostate
[6] = tested on: MDA-MB-231 breast
[7] = tested on: OVCAR-4 ovarian
[8] = tested on: HCT-116 colon
[9] = tested on: 786-0 renal
[10] = tested on: CAKI-1 renal
[11] = tested on: OVCAR-3 ovarian
[12] = tested on: COLO 205 colon
[13] = tested on: NCI-H226 lung
[14] = tested on: BT-549 breast
[15] = tested on: LOX IMVI melanoma
[16] = tested on: ACHN renal
[17] = tested on: HL-60(TB) leukemia
[18] = tested on: SNB-19 CNS
[19] = tested on: KM12 colon
[20] = tested on: HS 578T breast
[21] = tested on: MDA-N
[22] = tested on: MCF7 breast
[23] = tested on: SK-MEL-5 melanoma
[24] = tested on: MDA-MB-435
[25] = tested on: RXF 393 renal
[26] = tested on: HCT-15 colon
[27] = tested on: HT29 colon
[28] = tested on: SK-MEL-2 melanoma
[29] = tested on: OVCAR-5 ovarian
[30] = tested on: DU-145 prostate
[31] = tested on: MOLT-4 leukemia
[32] = tested on: HOP-62 NSCLC
[33] = tested on: SN12C renal
[34] = tested on: SF-539 CNS
[35] = tested on: M14 melanoma
[36] = tested on: NCI-H522 lung
[37] = tested on: HOP-92 NSCLC
[38] = tested on: SNB-75 CNS
[39] = tested on: UO-31 renal
[40] = tested on: MALME-3M melanoma
[41] = tested on: A498 renal
[42] = tested on: HCC-2998 colon
[43] = tested on: RPMI-8226 leukemia
[44] = tested on: IGROV1 ovarian
[45] = tested on: UACC-257 melanoma
[46] = tested on: U251 CNS
[47] = tested on: SR leukemia
[48] = tested on: EKVX NSCLC
[49] = tested on: NCI/ADR-RES ovarian
[50] = tested on: UACC-62 melanoma
[51] = tested on: A549 NSCLC
[52] = tested on: NCI-H23 lung
[53] = tested on: SF-295 CNS
[54] = tested on: SW-620 colon
[55] = tested on: SK-OV-3 ovarian
[56] = tested on: SK-MEL-28 melanoma
[57] = tested on: NCI-H460 lung
[58] = tested on: K-562 leukemia
[59] = tested on: CCRF-CEM leukemia

CC1OC(Oc2c(-c3cc(O)c(O)c(O)c3)oc3cc(O)cc(O)c3c2=O)C(O)C(O)C1O (stereo unspecified)
TGI [1]: > 100 µM
TGI [2]: > 100 µM
TGI [3]: > 100 µM
TGI [4]: > 100 µM
TGI [5]: > 100 µM
TGI [6]: > 100 µM
TGI [7]: > 100 µM
TGI [8]: > 100 µM
TGI [9]: > 100 µM
TGI [10]: > 100 µM
TGI [11]: > 100 µM
TGI [12]: > 100 µM
TGI [13]: > 100 µM
TGI [14]: > 100 µM
TGI [15]: > 100 µM
TGI [16]: > 100 µM
TGI [17]: > 100 µM
TGI [18]: > 100 µM
TGI [19]: > 100 µM
TGI [20]: > 100 µM
TGI [21]: > 100 µM
TGI [22]: > 100 µM
TGI [23]: > 100 µM
TGI [24]: > 100 µM
TGI [25]: > 100 µM
TGI [26]: > 100 µM
TGI [27]: > 100 µM
TGI [28]: > 100 µM
TGI [29]: > 100 µM
TGI [30]: > 100 µM
TGI [31]: > 100 µM
TGI [32]: > 100 µM
TGI [33]: > 100 µM
TGI [34]: > 100 µM
TGI [35]: > 100 µM
TGI [36]: > 100 µM
TGI [37]: > 100 µM
TGI [38]: > 100 µM
TGI [39]: > 100 µM
TGI [40]: > 100 µM
TGI [41]: > 100 µM
TGI [42]: > 100 µM
TGI [43]: > 100 µM
TGI [44]: > 100 µM
TGI [45]: > 100 µM
TGI [46]: > 100 µM
TGI [47]: > 100 µM
TGI [48]: > 100 µM
TGI [49]: > 100 µM
TGI [50]: > 100 µM
TGI [51]: > 100 µM
TGI [52]: > 100 µM
TGI [53]: > 100 µM
TGI [54]: > 100 µM
TGI [55]: > 100 µM
TGI [56]: > 100 µM

COC(=O)c1cnc(Cl)c([N+](=O)[O-])c1
TGI [1]: 4.68 µM
TGI [2]: 7.6 µM
TGI [3]: 3.95 µM
TGI [4]: 30.3 µM
TGI [5]: 22.6 µM
TGI [6]: 30.1 µM
TGI [7]: 36.6 µM
TGI [8]: 8.77 µM
TGI [9]: 11.2 µM
TGI [10]: 25.7 µM
TGI [11]: 28.7 µM
TGI [12]: 12.2 µM
TGI [13]: 36.5 µM
TGI [14]: 32.3 µM
TGI [15]: 3.68 µM
TGI [16]: 25.1 µM
TGI [17]: 5.73 µM
TGI [18]: 32.4 µM
TGI [19]: 35 µM
TGI [20]: 76.4 µM
TGI [21]: 20.1 µM
TGI [22]: 4.34 µM
TGI [23]: 27.2 µM
TGI [24]: 19.4 µM
TGI [25]: 25.1 µM
TGI [26]: 4.21 µM
TGI [27]: 32.6 µM
TGI [28]: 31.5 µM
TGI [29]: 32 µM
TGI [30]: 21.3 µM
TGI [32]: 36.5 µM
TGI [33]: 25.8 µM
TGI [57]: 31.5 µM
TGI [34]: 32.1 µM
TGI [35]: 27 µM
TGI [36]: 3.28 µM
TGI [37]: 4.25 µM
TGI [58]: 4.8 µM
TGI [38]: 34.8 µM
TGI [59]: 5.1 µM
TGI [39]: 3.55 µM
TGI [41]: 40 µM
TGI [42]: 21.5 µM
TGI [43]: 5.3 µM
TGI [44]: 8.1 µM
TGI [45]: 20.3 µM
TGI [46]: 4.23 µM
TGI [47]: 4.24 µM
TGI [48]: 3.28 µM
TGI [49]: 68.3 µM
TGI [50]: 32.1 µM
TGI [51]: 41.6 µM
TGI [52]: 35.2 µM
TGI [53]: 33.5 µM
TGI [54]: 4.78 µM
TGI [55]: 33.8 µM
TGI [56]: 36 µM

C=C1CC2(CCOc3ccc(Cl)cc32)OC1=O (stereo unspecified)
TGI [1]: 32.3 µM
TGI [2]: 16.1 µM
TGI [3]: 16.5 µM
TGI [4]: 17.5 µM
TGI [5]: 10.6 µM
TGI [6]: 20.1 µM
TGI [7]: 4.33 µM
TGI [8]: 6.98 µM
TGI [9]: 7.13 µM
TGI [10]: 15.4 µM
TGI [11]: 7.52 µM
TGI [12]: 6.16 µM
TGI [13]: 11.2 µM
TGI [14]: 2.75 µM
TGI [15]: 8.88 µM
TGI [16]: 15.4 µM
TGI [17]: 8.84 µM
TGI [18]: 32.6 µM
TGI [19]: 28 µM
TGI [20]: 23.4 µM
TGI [21]: 17.9 µM
TGI [22]: 6.16 µM
TGI [23]: 14.2 µM
TGI [24]: 14.1 µM
TGI [25]: 10.7 µM
TGI [26]: 4.26 µM
TGI [27]: 24.2 µM
TGI [28]: 6.29 µM
TGI [29]: 23.4 µM
TGI [30]: 27.4 µM
TGI [31]: 8.29 µM
TGI [32]: 22.7 µM
TGI [33]: 22.1 µM
TGI [57]: 12.6 µM
TGI [34]: 0.976 µM
TGI [35]: 11.1 µM
TGI [36]: 3.42 µM
TGI [37]: 12.4 µM
TGI [58]: > 31.5 µM
TGI [38]: 16.3 µM
TGI [59]: 53 µM
TGI [39]: 11.2 µM
TGI [41]: 30.2 µM
TGI [42]: 40.3 µM
TGI [43]: 9.35 µM
TGI [44]: 21.2 µM
TGI [45]: 20.1 µM
TGI [46]: 22.5 µM
TGI [47]: 12.2 µM
TGI [48]: 21.5 µM
TGI [49]: 24.6 µM
TGI [50]: 26.1 µM
TGI [51]: 29.3 µM
TGI [52]: 19.5 µM
TGI [53]: 21.5 µM
TGI [54]: 5.44 µM
TGI [55]: 26.2 µM
TGI [56]: 23.3 µM
